Laboratory results reported in ChEMBL document CHEMBL3045369 (J Neurochem, 2000).
Activity calls are given as the source filed them. No cut-off for these calls is given here.

Assays:
[1] = biological target: T1, Nicotinic acetylcholine receptor alpha 5 subunit (Musca domestica, UniProt A9XFY4); assay: Displacement of [3H]IMI from nicotinic acetylcholine receptor in Musca domestica (house fly) head membrane after 90 min by filter binding assay
T1 sequence (A9XFY4 whole entry): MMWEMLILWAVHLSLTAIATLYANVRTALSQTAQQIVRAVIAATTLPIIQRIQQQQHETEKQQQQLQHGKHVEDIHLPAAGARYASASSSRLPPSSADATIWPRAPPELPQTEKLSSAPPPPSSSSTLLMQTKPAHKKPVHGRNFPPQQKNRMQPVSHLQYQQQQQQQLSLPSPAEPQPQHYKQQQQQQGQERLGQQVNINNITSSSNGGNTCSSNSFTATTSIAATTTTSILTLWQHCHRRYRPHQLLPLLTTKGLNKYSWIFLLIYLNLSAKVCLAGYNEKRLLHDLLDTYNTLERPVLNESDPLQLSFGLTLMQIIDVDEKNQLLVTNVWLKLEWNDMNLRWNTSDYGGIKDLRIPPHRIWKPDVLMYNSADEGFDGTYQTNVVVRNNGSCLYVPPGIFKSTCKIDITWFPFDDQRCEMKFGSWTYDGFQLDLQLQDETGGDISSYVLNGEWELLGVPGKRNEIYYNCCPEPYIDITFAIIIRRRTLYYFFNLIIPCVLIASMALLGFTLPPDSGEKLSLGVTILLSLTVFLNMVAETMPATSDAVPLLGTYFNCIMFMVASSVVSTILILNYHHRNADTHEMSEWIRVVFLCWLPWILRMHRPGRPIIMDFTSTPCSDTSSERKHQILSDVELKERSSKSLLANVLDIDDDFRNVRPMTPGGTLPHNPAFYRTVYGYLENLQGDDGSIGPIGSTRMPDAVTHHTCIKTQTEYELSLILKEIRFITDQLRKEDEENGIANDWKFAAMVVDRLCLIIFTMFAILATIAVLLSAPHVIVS

[2] = Displacement of [3H]IMI from nicotinic acetylcholine receptor in Myzus persicae (green peach aphid) whole body membrane after 90 min by filter binding assay
[3] = biological target: T2, Acetylcholine receptor subunit beta-like 2 (Drosophila melanogaster, UniProt P25162); assay: Displacement of [3H]IMI from nicotinic acetylcholine receptor in Drosophila melanogaster head membrane after 90 min by filter binding assay
T2 sequence (P25162 whole entry): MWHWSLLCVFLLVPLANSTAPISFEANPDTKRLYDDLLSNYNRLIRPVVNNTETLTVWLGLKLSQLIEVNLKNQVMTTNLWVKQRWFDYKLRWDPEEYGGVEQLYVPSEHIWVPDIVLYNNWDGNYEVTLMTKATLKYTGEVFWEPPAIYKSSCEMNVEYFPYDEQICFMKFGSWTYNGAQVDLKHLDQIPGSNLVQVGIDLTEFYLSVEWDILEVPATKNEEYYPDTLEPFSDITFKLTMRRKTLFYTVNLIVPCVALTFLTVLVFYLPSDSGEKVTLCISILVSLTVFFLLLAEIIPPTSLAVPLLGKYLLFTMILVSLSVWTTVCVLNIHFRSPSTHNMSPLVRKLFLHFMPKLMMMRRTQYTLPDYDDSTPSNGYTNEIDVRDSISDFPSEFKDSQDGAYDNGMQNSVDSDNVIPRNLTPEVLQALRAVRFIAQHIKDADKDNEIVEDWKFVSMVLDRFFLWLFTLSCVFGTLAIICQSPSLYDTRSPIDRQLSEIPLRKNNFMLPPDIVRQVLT

[4] = biological target: T3, Acetylcholine receptor subunit beta-like 2 (Drosophila melanogaster) (UniProt P25162); assay: Competitive inhibition of nicotinic acetylcholine receptor in Drosophila melanogaster head membrane using [3H]IMI as substrate incubated for 5 min prior to substrate addition measured after 90 min by Sctachard plot analysis
T3 sequence (whole entry): T2 sequence (P25162 whole entry)

[5] = test system: Myzus persicae; assay: Competitive inhibition of nicotinic acetylcholine receptor in Myzus persicae (green peach aphid) whole body membrane using [3H]IMI as substrate incubated for 5 min prior to substrate addition measured after 90 min by Sctachard plot analysis

O=[N+]([O-])/N=C1\NCOCN1Cc1ccc(Cl)nc1
IC50 [1]: 14 nM
IC50 [2]: 13 nM
IC50 [3]: 22 nM

CN/C(=N\[N+](=O)[O-])NCc1cnc(Cl)s1 [CLOTHIANIDINE]
IC50 [1]: 1.8 nM
IC50 [2]: 9.2 nM
inhibition [4]: Active
IC50 [3]: 2.2 nM
inhibition [5]: Active

C/C(=N\C#N)N(C)Cc1cnc(Cl)s1
IC50 [2]: 65 nM
IC50 [3]: 154 nM

C/N=C(\NCc1ccc(Cl)nc1)N[N+](=O)[O-]
IC50 [1]: 7.1 nM
IC50 [2]: 15 nM
IC50 [3]: 7.4 nM

N#C/N=C1\SCCN1Cc1cnc(Cl)s1
IC50 [2]: 56 nM
IC50 [3]: 94 nM

O=[N+]([O-])/N=C1\NCOCN1Cc1cnc(Cl)s1 [DESMETHYLTHIAMETHOXAM]
IC50 [1]: 16 nM
IC50 [2]: 10 nM
inhibition [4]: Active
IC50 [3]: 20 nM
inhibition [5]: Active

O=[N+]([O-])/N=C1\NCCN1Cc1cnc(Cl)s1 [IMIDACLOTHIZ]
IC50 [1]: 12 nM
IC50 [2]: 21 nM
IC50 [3]: 17 nM

O=[N+]([O-])C=C1NCCCS1
IC50 [2]: 3500 nM
IC50 [3]: 4700 nM

C/C(=N\C#N)N(C)Cc1ccc(Cl)nc1 [ACETAMIPRID]
IC50 [2]: 10 nM
IC50 [3]: 8.3 nM

CN1CN(C)/C(=N\[N+](=O)[O-])N(Cc2cnc(Cl)s2)C1
IC50 [2]: > 1000 nM
IC50 [3]: > 1000 nM

CCN(Cc1ccc(Cl)nc1)/C(=C/[N+](=O)[O-])NC [NITENPYRAM]
IC50 [2]: 21 nM
IC50 [3]: 11 nM

CN1CN(C)/C(=N\[N+](=O)[O-])N(Cc2ccc(Cl)nc2)C1
IC50 [2]: > 1000 nM
IC50 [3]: > 1000 nM

CN/C(=N/CC1CCOC1)N[N+](=O)[O-] (stereo unspecified) [DINOTEFURAN]
IC50 [3]: 5000 nM

O=[N+]([O-])/N=C1\NCCN1Cc1ccc(Cl)nc1 [IMIDACLOPRID]
IC50 [1]: 2.6 nM
IC50 [2]: 3.1 nM
IC50 [3]: 2.3 nM

CCN(Cc1cnc(Cl)s1)/C(=C/[N+](=O)[O-])NC
IC50 [2]: 150 nM
IC50 [3]: 160 nM

N#C/N=C1\SCCN1Cc1ccc(Cl)nc1 [THIACLOPRID]
IC50 [2]: 3.4 nM
IC50 [3]: 7.5 nM
